{"source": "patent US20080031893A1", "about": "(Metaproteomics, LLC, priority 2006, published 2008)", "key": {"3T3-L1 adipocytes [1]": {"tested_on": "3T3-L1 adipocytes", "assay": "Adiponectin secretion in LPS/3T3-L1 adipocytes", "format": "cell-based, murine", "settings": "for adiponectin secretion: LPS, any dose tested; for % Stimulation (maximum) of adiponectin secretion: 0.625 μg/ml"}, "3T3-L1 adipocytes [2]": {"tested_on": "3T3-L1 adipocytes", "assay": "Adiponectin secretion from insulin-resistant 3T3-L1 adipocytes", "format": "cell-based, murine", "protocol": "3T3-L1 cells were seeded at an initial density of 1×10^4 cells/cm^2 in 96-well plates. For two days, the cells were allowed grow to reach confluence. Following confluence, the cells were forced to differentiate into adipocytes by the addition of differentiation medium; this medium consisted of (1) 10% FBS/DMEM (high glucose); (2) 0.5 mM methylisobutylxanthine; (3) 0.5 μM dexamethasone and (4) 10 μg/ml insulin (MDI medium). From Day 3 through Day 5, the medium was changed to post-differentiation medium consisting of 10 μg/ml insulin in 10% FBS/DMEM.\nBriefly, on Day 6, cells were maintained in serum-free media containing 0.5% bovine serum albumin (BSA) for three hours and then treated with 1 μg insulin/ml plus solvent or insulin plus test material. […] Twenty-four hours later, the supernatant medium was sampled for adiponectin determination.\nAdiponectin Assay—The adiponectin secreted into the medium was quantified using the Mouse Adiponectin Quantikine® Immunoassay kit with no modifications (R&D Systems, Minneapolis, Minn.).\nStatistical Calculations and Interpretation—All assays were preformed in duplicate. […] Differences between the doses were determined using the student's t-test without correction for multiple comparisons; the nominal five percent probability of a type I error was selected. […]"}, "3T3-L1 adipocytes [3]": {"tested_on": "3T3-L1 adipocytes", "assay": "IL-6 secretion in LPS/3T3-L1 adipocytes", "format": "cell-based, murine", "settings": "100 ng LPS/ml"}, "3T3-L1 adipocytes [4]": {"tested_on": "3T3-L1 adipocytes", "assay": "IL-6 secretion from TNFα-treated 3T3-L1 adipocytes", "format": "cell-based, murine", "settings": "10 ng TNFα/ml", "protocol": "Interleukin-6 Assay—The IL-6 secreted into the medium was quantified using the Quantikine® Mouse IL-6 Immunoassay kit with no modifications (R&D Systems, Minneapolis, Minn.). […] All supernatant media samples were assayed undiluted.\nStatistical Calculations and Interpretation—All assays were preformed in duplicate. […] Differences among the doses were determined using the student's t-test without correction for multiple comparisons; the nominal five percent probability of a type I error (one-tail) was selected."}, "3T3-L1 adipocytes [5]": {"tested_on": "3T3-L1 adipocytes", "assay": "Adiponectin secretion from TNFα-treated 3T3-L1 adipocytes", "format": "cell-based, murine", "protocol": "For two days, the cells were allowed grow to reach confluence. […] (3) 0.5 μM dexamethasone and (4) 10 μg/ml insulin (MDI medium). […] Adiponectin Assay—The adiponectin secreted into the medium was quantified using the Mouse Adiponectin Quantikine® Immunoassay kit with no modifications (R&D Systems, Minneapolis, Minn.). […] Statistical Calculations and Interpretation—All assays were preformed in duplicate. […] Differences among the doses and test agents were determined using the Student's t-test without correction for multiple comparisons; the nominal five percent probability of a type I error was selected."}, "NF-kBp65": {"tested_on": "NF-kBp65", "assay": "Nuclear translocation of NF-kBp65 in TNFα-treated 3T3-L1 adipocytes", "format": "cell-based, murine", "settings": "three or 24 hours following TNFα", "method": "Cell Culture and Treatment—Following differentiation 3T3-L1 adipocytes were maintained in post-differentiation medium for an additional 40 days. […] Hops derivatives and the positive control pioglitazone were tested at concentrations of 2.5, and 5.0 μg/ml. Test materials were added 1 hour prior to and nuclear extracts were prepared three and 24 hours following treatment with TNFα.\nELISA—3T3-L1 adipocytes were maintained in growth media for 40 days following differentiation. Nuclear NF-kBp65 was determined using the TransAM™ NF-kB kit from Active Motif (Carlsbad, Calif.) was used with no modifications. Jurkat nuclear extracts provided in the kit were derived from cells cultured in medium supplemented with 50 ng/ml TPA (phorbol, 12-myristate, 13 acetate) and 0.5 μM calcium ionophore A23187 for two hours at 37° C. immediately prior to harvesting.\nProtein assay—Nuclear protein was quantified using the Active Motif Fluorescent Protein Quantification Kit.\nStatistical Analysis—Comparisons were performed using a one-tailed Student's t-test. The probability of a type I error was set at the nominal five percent level."}, "3T3-L1 adipocytes [6]": {"tested_on": "3T3-L1 adipocytes", "assay": "Lipogenesis in 3T3-L1 adipocytes (Oil Red O / BODIPY)", "format": "cell-based, murine", "settings": "for adipogenic response of hops compounds: 10, 5, 4 or 2 μg/ml, spent hops 50 μg/ml", "protocol": "Prior to experiments, cells were cultured in DMEM containing 10% FBS-HI added 50 units penicillin/ml and 50 μg streptomycin/ml, and maintained in log phase prior to experimental setup. Cells were grown in a 5% CO2 humidified incubator at 37° C. Components of the pre-confluent medium included (1) 10% FBS/DMEM containing 4.5 g glucose/L; (2) 50 U/ml penicillin; and (3) 50 μg/ml streptomycin. Growth medium was made by adding 50 ml of heat inactivated FBS and 5 ml of penicillin/streptomycin to 500 ml DMEM. This medium was stored at 4° C. Before use, the medium was warmed to 37° C. in a water bath.\n3T3-T1 cells were seeded at an initial density of 6×10^4 cells/cm^2 in 24-well plates. For two days, the cells were allowed grow to reach confluence. Following confluence, the cells were forced to differentiate into adipocytes by the addition of differentiation medium; this medium consisted of (1) 10% FBS/DMEM (high glucose); (2) 0.5 mM methylisobutylxanthine; (3) 0.5 μM dexamethasone and (4) 10 μg/ml insulin (MDI medium). After three days, the medium was changed to post-differentiation medium consisting of 10 μg/ml insulin in 10% FBS/DMEM.\nAcE was partially dissolved in dimethyl sulfoxide (DMSO) and added to the culture medium to achieve a concentration of 50 μg/ml at Day 0 of differentiation and throughout the maturation phase (Days 6 or 7 (D6/7)). Whenever fresh media were added, fresh test material was also added. DMSO was chosen for its polarity and the fact that it is miscible with the aqueous cell culture media.\nOil Red O Staining—Triglyceride content of D6/D7-differentiated 3T3-L1 cells was estimated with Oil Red O according to the method of Kasturi and Joshi [Kasturi, R. and Joshi, V. C. […] Monolayer cells were washed with PBS (phosphate buffered saline, Mediatech) and fixed with 10% formaldehyde for ten minutes. Fixed cells were stained with an Oil Red O working solution of three parts 0.6% Oil Red O/isopropanol stock solution and two parts water for one hour and the excess stain was washed once with water. The resulting stained oil droplets were extracted from the cells with isopropanol and quantified by spectrophotometric analysis at 540 nm (MEL312e BIO-KINETICS READER, Bio-Tek Instruments, Winooski, Vt.).\nBriefly, media were removed and cells were washed once with non-sterile PBS. A stock 1000× BODIPY/DMSO solution was made by dissolving 1 mg BODIPY in 1 ml DMSO (1,000 μg BODIPY/ml). […] After 15 min on an orbital shaker (DS-500, VWR Scientific Products, South Plainfield, N.J.) at ambient temperature, the cells were washed with 100 μl PBS followed by the addition of 100 μl PBS for reading for spectrofluorometric determination of BODIPY incorporation into the cells. […]"}, "[7]": {"assay": "Non-fasting serum glucose and insulin in db/db diabetic mice", "format": "in vivo, mouse", "settings": "three consecutive days, gavage", "protocol": "The Model—Male, C57BLKS/J m^+/m^+Lepr^db (db/db) mice were used to assess the potential of the test materials to reduce fasting serum glucose or insulin concentrations. This strain of mice is resistant to leptin by virtue of the absence of a functioning leptin receptor.\nTesting Procedure—Test substances were administered daily by gavage in 0.2% Tween-80. Serum was collected from the retroorbital sinus before the initial dose and ninety minutes after the third and final dose. Non-fasting serum glucose was determined enzymatically by the mutarotase/glucose oxidase method and serum insulin was determined by a mouse specific ELISA.\nThe Model—Male, C57BLKS/J m+/m+ Leprdb (db/db) mice were used to assess the potential of the test materials to reduce fasting serum glucose or insulin concentrations. This strain of mice is resistant to leptin by virtue of the absence of a functioning leptin receptor.\nTesting Procedure—Test substances were administered daily by gavage in 0.2% Tween-80. Serum was collected from the retroorbital sinus before the initial dose and ninety minutes after the fifth and final dose. Non-fasting serum glucose was determined enzymatically by the mutarotase/glucose oxidase method and serum insulin was determined by a mouse specific ELISA."}, "PI3K gamma": {"target": "PI3K gamma (Homo sapiens, UniProt P48736)", "sequence (P48736 whole entry)": "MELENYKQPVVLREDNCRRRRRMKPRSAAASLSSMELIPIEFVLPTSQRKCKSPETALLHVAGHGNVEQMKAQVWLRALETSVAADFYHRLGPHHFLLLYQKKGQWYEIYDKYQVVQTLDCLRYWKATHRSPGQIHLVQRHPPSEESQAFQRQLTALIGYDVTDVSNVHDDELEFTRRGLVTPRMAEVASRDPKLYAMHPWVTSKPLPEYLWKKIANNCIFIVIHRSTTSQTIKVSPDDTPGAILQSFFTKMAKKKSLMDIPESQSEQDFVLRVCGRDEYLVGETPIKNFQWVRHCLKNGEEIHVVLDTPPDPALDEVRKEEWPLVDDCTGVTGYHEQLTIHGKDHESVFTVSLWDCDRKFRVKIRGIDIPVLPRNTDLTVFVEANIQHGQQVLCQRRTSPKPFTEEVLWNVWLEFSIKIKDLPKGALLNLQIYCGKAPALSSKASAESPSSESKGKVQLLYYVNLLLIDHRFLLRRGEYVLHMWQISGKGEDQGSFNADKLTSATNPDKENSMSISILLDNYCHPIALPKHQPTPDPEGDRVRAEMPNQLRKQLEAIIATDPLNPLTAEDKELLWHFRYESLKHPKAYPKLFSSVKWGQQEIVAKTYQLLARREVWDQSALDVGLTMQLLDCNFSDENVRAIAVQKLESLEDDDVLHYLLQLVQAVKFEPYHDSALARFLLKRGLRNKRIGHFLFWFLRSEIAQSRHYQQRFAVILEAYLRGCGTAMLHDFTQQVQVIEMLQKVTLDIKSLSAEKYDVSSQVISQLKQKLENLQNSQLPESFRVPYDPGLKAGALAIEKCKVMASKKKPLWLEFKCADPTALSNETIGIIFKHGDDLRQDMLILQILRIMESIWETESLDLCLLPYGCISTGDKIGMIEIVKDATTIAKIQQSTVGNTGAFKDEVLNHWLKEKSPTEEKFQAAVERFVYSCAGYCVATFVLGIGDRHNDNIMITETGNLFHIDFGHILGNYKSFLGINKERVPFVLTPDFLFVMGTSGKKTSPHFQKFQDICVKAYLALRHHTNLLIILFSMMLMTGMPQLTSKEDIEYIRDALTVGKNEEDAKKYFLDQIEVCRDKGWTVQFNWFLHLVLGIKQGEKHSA", "assay": "KinaseProfiler Assay", "format": "biochemical", "settings": "50 μg/ml"}, "[8]": {"tested_on": "A549 pulmonary epithelial cells", "assay": "PGE2 biosynthesis in A549 cells stimulated by mite dust allergen", "format": "cell-based, human", "settings": "10 μg/ml, mite allergen 1000 ng/ml, 18 h", "protocol": "The filtrate was termed mite dust allergen and used to test for induction of PGE2 biosynthesis in A549 pulmonary epithelial cells.\nMite allergen was added to the culture medium to achieve a final concentration of 1000 ng/ml. Eighteen hours later, the media were sampled for PGE2 determination."}, "[9]": {"settings": "10 ng TNFα/ml, listed as indomethacin"}}, "note": "Marks after values point to notes of the source that are not given here."}
{"compound": "CC(=O)Oc1ccccc1C(=O)O", "note": "[Aspirin]", "values": [{"measurement": "adiponectin secretion", "setting": "3T3-L1 adipocytes [1]", "value": "failed to induce adiponectin secretion"}]}
{"compound": "CC(C)CCC1=C(O)C(C(=O)C(C)C)=C(O)C(CCC(C)C)(CCC(C)C)C1=O", "note": "[Hexahydrocolupulone (HHCL)]", "values": [{"measurement": "Adiponectin/IL-6", "setting": "3T3-L1 adipocytes [2]; 50.0 μg/ml, ratio of indices", "value": "0.60#"}]}
{"compound": "COc1ccc2c(c1)c(CC(=O)O)c(C)n2C(=O)c1ccc(Cl)cc1", "note": "[Indomethacin, indomethacin]", "values": [{"measurement": "% Inhibition (maximum) of IL-6 secretion", "setting": "3T3-L1 adipocytes [3]; 5.00 μg/ml", "value": "53* %"}, {"measurement": "IL-6 secretion in the presence of TNFα", "setting": "3T3-L1 adipocytes [4]", "value": "no anti-inflammatory effect"}, {"measurement": "adiponectin secretion", "setting": "3T3-L1 adipocytes [5]; 0.5 ng TNFα/ml, 50 μg/ml", "value": "dose-dependant decrease in adiponectin secretion"}, {"measurement": "Concentration of maximum adiponectin secretion", "setting": "3T3-L1 adipocytes [5]; 10 ng TNFα/ml", "value": 5.0, "unit": "µg/mL"}, {"measurement": "Concentration of maximum adiponectin secretion", "setting": "3T3-L1 adipocytes [5]; [9]", "value": 2.5, "unit": "µg/mL"}, {"measurement": "maximum increase of adiponectin secretion from TNFα solvent control", "setting": "3T3-L1 adipocytes [5]; [9]", "value": 94, "unit": "%"}, {"measurement": "Adiponectin/IL-6", "setting": "3T3-L1 adipocytes [5]; […], 10 ng TNFα/ml", "value": "2.00*"}]}
{"compound": "CCc1ccc(CCOc2ccc(CC3SC(=O)NC3=O)cc2)nc1", "note": "(stereo not shown) [Pioglitazone]", "values": [{"measurement": "IL-6 Index", "setting": "3T3-L1 adipocytes [3]; 5.00 μg/ml (dose providing maximum inhibition)", "value": "0.37*"}, {"measurement": "inhibition at 5 µg/mL", "setting": "3T3-L1 adipocytes [3]; Mus musculus, 3T3-L1, 5.00 μg/ml, read-out: % Inhibition (maximum) of IL-6 secretion", "value": 63, "unit": "%"}, {"measurement": "nuclear NF-kBp65", "setting": "NF-kBp65", "value": "did not inhibit"}, {"measurement": "maximum increase of adiponectin secretion from TNFα solvent control", "setting": "3T3-L1 adipocytes [5]; 10 ng TNFα/ml", "value": 80, "unit": "%"}, {"measurement": "Adiponectin Index (maximum over four doses)", "setting": "3T3-L1 adipocytes [5]; 10 ng TNFα/ml, Example 17", "value": 1.47}, {"measurement": "Adiponectin Index Observed", "setting": "3T3-L1 adipocytes [5]; 1.0 μg/ml, indexed to TNFα control", "value": 1.80}]}
{"compound": "Cc1c(C)c2c(c(C)c1O)CCC(C)(COc1ccc(CC3SC(=O)NC3=O)cc1)O2", "note": "(stereo not shown) [Troglitazone]", "values": [{"measurement": "inhibition at 10 µg/mL", "setting": "3T3-L1 adipocytes [3]; Mus musculus, 3T3-L1, 10.0 μg/ml, read-out: % Inhibition (maximum) of IL-6 secretion", "value": 69, "unit": "%"}, {"measurement": "maximum increase of adiponectin secretion from TNFα solvent control", "setting": "3T3-L1 adipocytes [5]; 10 ng TNFα/ml", "value": 51, "unit": "%"}, {"measurement": "% Stimulation (maximum) of adiponectin secretion", "setting": "3T3-L1 adipocytes [1]", "value": 15, "unit": "%"}]}
{"compound": "CC(C)CCC1=C(O)C(C(=O)C(C)C)=C(O)C(CCC(C)C)(CCC(C)C)C1=O", "note": "[hexahydrocolupulone]", "values": [{"measurement": "adipogenic response of hops compounds", "setting": "3T3-L1 adipocytes [6]", "value": "failed to elicit a lipogenic response greater than the solvent controls"}, {"measurement": "concentration for half maximal adiponectin secretion", "setting": "3T3-L1 adipocytes [2]; Hofstee plot", "value": 3.2, "unit": "µg/mL"}]}
{"compound": "CC(C)Cc1ccc(C(C)C(=O)O)cc1", "note": "(stereo not shown) [ibuprofen]", "values": [{"measurement": "inhibition at 0.625 µg/mL", "setting": "3T3-L1 adipocytes [3]; Mus musculus, 3T3-L1, 0.625 μg/ml, read-out: % Inhibition (maximum) of IL-6 secretion", "value": 54, "unit": "%"}, {"measurement": "% Stimulation (maximum) of adiponectin secretion", "setting": "3T3-L1 adipocytes [1]", "value": 22, "unit": "%"}]}
{"compound": "CN(C)C(=N)N=C(N)N", "note": "[metformin, Metformin]", "values": [{"measurement": "lipogenic index", "setting": "3T3-L1 adipocytes [6]; 50 μg test material/ml, observed", "value": 0.79}, {"measurement": "serum glucose relative to controls", "setting": "[7]", "value": "decreased both serum glucose and insulin concentrations"}]}
{"compound": "O=C(O)c1ccccc1O", "note": "[salicylic acid]", "values": [{"measurement": "IL-6 Index", "setting": "3T3-L1 adipocytes [3]; 50.0 μg/ml (dose providing maximum inhibition)", "value": "0.52*"}, {"measurement": "inhibition at 50 µg/mL", "setting": "3T3-L1 adipocytes [3]; Mus musculus, 3T3-L1, 50.0 μg/ml, read-out: % Inhibition (maximum) of IL-6 secretion", "value": 48, "unit": "%"}, {"measurement": "adiponectin secretion", "setting": "3T3-L1 adipocytes [1]", "value": "failed to induce adiponectin secretion"}]}
{"compound": "COc1cc(O)c(CC=C(C)C)c(O)c1C(=O)/C=C/c1ccc(O)cc1", "note": "[xanthohumol]", "values": [{"measurement": "adipogenic response of hops compounds", "setting": "3T3-L1 adipocytes [6]", "value": "comparable to indomethacin and troglitazone"}, {"measurement": "PI3K isoform preference", "setting": "PI3K gamma", "value": "more inhibitory to PI3K-γ than to PI3K-β or PI3K-δ"}]}
{"compound": "Beta acids", "values": [{"measurement": "adipogenic response of hops compounds", "setting": "3T3-L1 adipocytes [6]", "value": "comparable to indomethacin and troglitazone"}, {"measurement": "Percent PGE2 Inhibition", "setting": "[8]", "value": 83, "unit": "%"}]}
